Assay results published in patent US20080286340A1, “Buffered nicotine containing products” (priority 2007, published 2008).
Where two headings read alike, the source gives them in different places.

How the values were obtained:
[1] = pKa falling in interval 8-9.6; cited from earlier work
[2] = cited from earlier work
[3] = at 37° C.; cited from earlier work
[4] = smoking a cigarette; cited from earlier work

| SMILES | pKa value (in interval 8-9.6) [1] | Solubility in water ([2]; water) | also measured |
| --- | --- | --- | --- |
| NC(=O)C[C@H](N)C(=O)O [Aspargine] | 8.73 | – | – |
| N[C@@H](CS(=O)(=O)O)C(=O)O [Cysteic acid] | – | Very soluble | – |
| N[C@@H](CCC(=O)O)C(=O)O [Glutamic acid] | 9.58 | – | – |
| NC(=O)CC[C@H](N)C(=O)O [Glutamine] | – | 42 g/kg | – |
| N[C@@H](Cc1c[nH]cn1)C(=O)O [Histidine] | – | – | Solubility in water [2]: 43.5 g/kg |
| CC[C@H](C)[C@H](N)C(=O)O [Isoleucine] | – | 34.2 g/kg | – |
| CC(C)C[C@H](N)C(=O)O [Leucine] | – | 22.0 g/kg | – |
| NCCCC[C@H](N)C(=O)O [Lysine] | 9.16 | – | Solubility in water [2]: Very soluble^a)b) |
| CSCC[C@H](N)C(=O)O [Methionine] | – | – | Solubility in water [2]: 56 g/kg |
| N[C@@H](Cc1ccccc1)C(=O)O [Phenylalanine] | 9.09 | 27.9 g/kg | – |
| CC(C)[C@H](N)C(=O)O [Valine] | – | 88.5 g/kg | – |
| CN1CCCC1c1cccnc1 (centres unmarked) [nicotine, 3-(1-methyl-2-pyrrolidinyl)pyridine] | – | – | pKa (acid-base equilibrium of nicotine) [3]: ~7.8; nicotine in the non-charged base form (assuming a pH of the saliva of 6.8): about 10%; nicotine in the free readily absorbable base form (at a pH of 9.0): more than 90%; time until nicotine reaches the brain after inhalation [4]: around ten |
